Assay results taken from publication PMC8999125, “In Vitro and In Vivo Effects of the Urokinase Plasminogen Activator Inhibitor WX-340 on Anaplastic Thyroid Cancer Cell Lines” (International Journal of Molecular Sciences, 2022).

Target: T1, urokinase-type plasminogen activator (uPA) (Homo sapiens, UniProt P00749)
T1 construct: gene PLAU; uPA purified from human urine
Assay: colorimetric uPA activity assay (CHEMICON kit), dose-response […] to […]
Assay type: biochemical

- IC50: 90 nM
Substance: WX-340
